Data as given in patent publication US11780833B2, “Emetine derivatives, prodrugs containing same, and methods of treating conditions using same” (HOWARD UNIVERSITY, priority 2011, dated 2023).
Where two headings read alike, the source gives them in different places.

How the values were obtained:
[1] = pH-responsiveness by HPLC: emetine released in aqueous phosphate buffer; type: physicochemical; details: 37° C.
Protocol: Relative rates of hydrolysis of the compounds listed in Table 5 below over a 48 hour period were evaluated using the percent emetine released from the acid catalyzed hydrolysis of compounds 1 to 6.
The compounds were incubated in aqueous phosphate buffer at pH 5.5, 6.5 and 7.4 at 37° C. over a 48 hour period. High performance liquid chromatography (HPLC) was employed to analyze the samples and quantify how much emetine was released. The compounds whose hydrolysis to emetine is shown in table 5 are all 100% stable at physiological pH 7.4 up to a 5 day exposure.

DU145 cells = assay: cells; type: cell-based; details: Homo sapiens
Protocol: (§1) Studies were carried out on three prostate cancer cell lines: LNCaP, PC3, and DU145. […] There was not a significant difference in cytotoxicity of emetine between days 3 and 7. […] This increase is most likely due to the release of emetine from the dithiocarbamate salt over the time period. Further drug release studies at pH 5 confirmed about 45% release of emetine from the dithiocarbamate salt after 3-day incubation at this acidic pH maintained at 37° C., whereas release of emetine from the dithiocarbamate salt was not observed at physiological pH (e.g., about 7.4).
(§2) Various compounds prepared according to Examples 1-5 were studied in LNCaP, PC3, and DU145 cells.
(§3) Various compounds prepared according to Example 6 were studied in DU145 and PC3 cells. The IC50 was determined at 3, 5, and 7 days.

PC3 cells = assay: cells; type: cell-based; details: Homo sapiens
Protocol: as §1, §2, §3

LNCaP cells = assay: Cytotoxicity in LNCaP prostate cancer cell line; type: cell-based; details: Homo sapiens, 168 h, read-out: IC50 after 7 days
Protocol: as §1, §2

[2] = DU-145, 168 h, read-out: IC50 after 7 days
[3] = PC-3, 72 h, read-out: IC50 in PC3
[4] = PC-3, 120 h, read-out: IC50 in PC3
[5] = PC-3, 168 h, read-out: IC50 in PC3
[6] = DU-145, 72 h, read-out: IC50 in DU145
[7] = DU-145, 120 h, read-out: IC50 in DU145
[8] = DU-145, 168 h, read-out: IC50 in DU145
[9] = PC-3, 168 h, read-out: IC50 after 7 days

In the case of `CCC1CN2CCc3cc(OC)c(OC)cc3C2CC1CC1c2cc(OC)c(OC)cc2CCN1C(=O)/C=C(/CC(=O)O)C(=O)O` (stereo not drawn) [Compound 6], the “% Emetine at pH 5.5” value ([1]; pH 5.5, 0 hr) is reported as 0.0%, the “% Emetine at pH 5.5” value ([1]; pH 5.5, 24 hrs) is reported as 33.9% and the “% Emetine at pH 5.5” value ([1]; pH 5.5, 48 hrs) is reported as 42.1%. The “% Emetine at pH 6.5” value ([1]; pH 6.5, 0 hr) was 0.0%, the “% Emetine at pH 6.5” value ([1]; pH 6.5, 24 hrs) was 13.4% and the “% Emetine at pH 6.5” value ([1]; pH 6.5, 48 hrs) was 21.1%. The “% Emetine at pH 7.4 to 8.0 over 72 hrs” value ([1]; pH 7.4 to 8.0, 0 hrs) was 0.0%, the “% Emetine at pH 7.4 to 8.0 over 72 hrs” value ([1]; pH 7.4 to 8.0, 24 hrs) was 0.0% and the “% Emetine at pH 7.4 to 8.0 over 72 hrs” value ([1]; pH 7.4 to 8.0, 48 hrs) was 0.0%.
With `CCC1CN2CCc3cc(OC)c(OC)cc3C2CC1CC1c2cc(OC)c(OC)cc2CCN1C(=S)Nc1ccc(OC)cc1` (stereo not drawn) [Compound 11b] the IC50 (DU145 cells; [2]) was 0.467 ± 0.025 µM.
`CCC1CN2CCc3cc(OC)c(OC)cc3C2CC1CC1c2cc(OC)c(OC)cc2CCN1C(=O)/C=C(/CC(=O)O)C(=O)O` (stereo not drawn) [Compound 15d2] gave an IC50 (PC3 cells; [3]) of 3.06 ± 0.11 µM, an IC50 (PC3 cells; [4]) of 2.43 ± 0.118 µM and an IC50 (PC3 cells; [5]) of 2.89 ± 0.123 µM. It also gave an IC50 (DU145 cells; [6]) of 2.58 ± 0.191 µM, an IC50 (DU145 cells; [7]) of 2.01 ± 0.0734 µM and an IC50 (DU145 cells; [8]) of 1.79 ± 0.134 µM.
With `CCC1CN2CCc3cc(OC)c(OC)cc3C2CC1CC1c2cc(OC)c(OC)cc2CCN1C(=S)NCc1ccccc1Cl` (stereo not drawn) [Compound 11h] the IC50 (DU145 cells; [2]) was 2.37 ± 0.112 µM.
Molecule `CCC1CN2CCc3cc(OC)c(OC)cc3C2CC1CC1c2cc(OC)c(OC)cc2CCN1S(=O)(=O)c1ccc(C)cc1` (stereo not drawn) [Compound 8a] has an IC50 (DU145 cells; [2]) of 6.24 ± 0.098 µM.
In the case of `CCC1CN2CCc3cc(OC)c(OC)cc3C2CC1CC1c2cc(OC)c(OC)cc2CCN1C(=S)NCCOC` (stereo not drawn) [Compound 11n], the IC50 (PC3 cells; [9]) is reported as greater than 10 µM.
Molecule `CCC1CN2CCc3cc(OC)c(OC)cc3C2CC1CC1c2cc(OC)c(OC)cc2CCN1C(=O)/C(Cl)=C(\Cl)C(=O)O` (stereo not drawn) [Compound 15b2] has an IC50 (PC3 cells; [3]) of 7.58 ± 0.135 µM, an IC50 (PC3 cells; [4]) of 5.99 ± 0.239 µM and an IC50 (PC3 cells; [5]) of 7.51 ± 0.168 µM. It also gave an IC50 (DU145 cells; [6]) of 6.53 ± 0.0852 µM, an IC50 (DU145 cells; [7]) of 5.99 ± 0.239 µM and an IC50 (DU145 cells; [8]) of 5.218 ± 0.0459 µM.
`CCC1CN2CCc3cc(OC)c(OC)cc3C2CC1CC1c2cc(OC)c(OC)cc2CCN1S(=O)(=O)c1ccc(F)cc1` (stereo not drawn) [Compound 8c] showed an IC50 (PC3 cells; [9]) of 4.58 ± 0.383 µM and an IC50 (DU145 cells; [2]) of 8.038 ± 0.06 µM.
`CCC1CN2CCc3cc(OC)c(OC)cc3C2CC1CC1c2cc(OC)c(OC)cc2CCN1C(=S)SCC(=O)Nc1ccc(Br)cc1` (stereo not drawn) [Compound 4g] gave an IC50 (LNCaP cells) of 1.7 ± 0.187 µM, an IC50 (PC3 cells; [9]) of 2.77 ± 0.146 µM and an IC50 (DU145 cells; [2]) of 2.79 ± 0.151 µM.
For `CCCCCCSC(=S)N1CCc2cc(OC)c(OC)cc2C1CC1CC2c3cc(OC)c(OC)cc3CCN2CC1CC` (stereo not drawn) [Compound 4h], the IC50 (LNCaP cells) was 1.61 ± 0.066 µM, the IC50 (PC3 cells; [9]) was 3.03 ± 0.16 µM and the IC50 (DU145 cells; [2]) was 2.3 ± 0.067 µM.
`CCC1CN2CCc3cc(OC)c(OC)cc3C2CC1CC1c2cc(OC)c(OC)cc2CCN1C(=S)NCc1ccccc1` (stereo not drawn) [Compound 11e] showed an IC50 (LNCaP cells) of 2.06 ± 0.438 µM, an IC50 (PC3 cells; [9]) of 6.92 ± 0.0711 µM and an IC50 (DU145 cells; [2]) of 1.54 ± 0.254 µM.
`CCC1CN2CCc3cc(OC)c(OC)cc3C2CC1CC1c2cc(OC)c(OC)cc2CCN1C(=S)SCC(=O)c1ccc(Cl)cc1` (stereo not drawn) [Compound 4i] gave an IC50 (PC3 cells; [9]) of 2.69 ± 0.145 µM and an IC50 (DU145 cells; [2]) of 2.45 ± 0.162 µM.
Molecule `CCC1CN2CCc3cc(OC)c(OC)cc3C2CC1CC1c2cc(OC)c(OC)cc2CCN1C(=S)NCc1ccc(F)cc1` (stereo not drawn) [Compound 11i] has an IC50 (PC3 cells; [9]) of 5.27 ± 0.372 µM.
In the case of `CCC1CN2CCc3cc(OC)c(OC)cc3C2CC1CC1c2cc(OC)c(OC)cc2CCN1C(=O)/C=C(/C)C(=O)O` (stereo not drawn) [Compound 3], the “% Emetine at pH 5.5” value ([1]; pH 5.5, 0 hr) is reported as 0.0%, the “% Emetine at pH 5.5” value ([1]; pH 5.5, 24 hrs) is reported as 78.1% and the “% Emetine at pH 5.5” value ([1]; pH 5.5, 48 hrs) is reported as 93.4%. For the same molecule, the “% Emetine at pH 6.5” value ([1]; pH 6.5, 0 hr) was 0.0%, the “% Emetine at pH 6.5” value ([1]; pH 6.5, 24 hrs) was 76.8% and the “% Emetine at pH 6.5” value ([1]; pH 6.5, 48 hrs) was 82.7%. The “% Emetine at pH 7.4 to 8.0 over 72 hrs” value ([1]; pH 7.4 to 8.0, 0 hrs) was 0.0%, the “% Emetine at pH 7.4 to 8.0 over 72 hrs” value ([1]; pH 7.4 to 8.0, 24 hrs) was 0.0% and the “% Emetine at pH 7.4 to 8.0 over 72 hrs” value ([1]; pH 7.4 to 8.0, 48 hrs) was 0.0%.
`CCC1CN2CCc3cc(OC)c(OC)cc3C2CC1CC1c2cc(OC)c(OC)cc2CCN1C(=S)SCCCCC(=O)OC` (stereo not drawn) [Compound 4l] showed an IC50 (LNCaP cells) of 2.31 ± 0.174 µM, an IC50 (PC3 cells; [9]) of 4.86 ± 0.153 µM and an IC50 (DU145 cells; [2]) of 2.25 ± 0.084 µM.
Work on `CCC1CN2CCc3cc(OC)c(OC)cc3C2CC1CC1c2cc(OC)c(OC)cc2CCN1S(=O)(=O)c1ccc(OC)cc1` (stereo not drawn) [Compound 8f] yielded an IC50 (PC3 cells; [9]) of 6.08 ± 0.105 µM.
For `CCOC(=O)c1ccc(NC(=O)CSC(=S)N2CCc3cc(OC)c(OC)cc3C2CC2CC3c4cc(OC)c(OC)cc4CCN3CC2CC)cc1` (stereo not drawn) [Compound 4c], the IC50 (LNCaP cells) was 1.66 ± 0.564 µM, the IC50 (PC3 cells; [9]) was 2.71 ± 0.192 µM and the IC50 (DU145 cells; [2]) was 2.47 ± 0.263 µM.
In the case of `CCC1CN2CCc3cc(OC)c(OC)cc3C2CC1CC1c2cc(OC)c(OC)cc2CCN1C(=O)/C=C\C(=O)O` (stereo not drawn) [Compound 2], the “% Emetine at pH 5.5” value ([1]; pH 5.5, 0 hr) is reported as 0.0%, the “% Emetine at pH 5.5” value ([1]; pH 5.5, 24 hrs) is reported as 36.3% and the “% Emetine at pH 5.5” value ([1]; pH 5.5, 48 hrs) is reported as 54.10%. The “% Emetine at pH 6.5” value ([1]; pH 6.5, 0 hr) was 0.0%, the “% Emetine at pH 6.5” value ([1]; pH 6.5, 24 hrs) was 35.5% and the “% Emetine at pH 7.4 to 8.0 over 72 hrs” value ([1]; pH 7.4 to 8.0, 0 hrs) was 0.0%. For the same molecule, the “% Emetine at pH 7.4 to 8.0 over 72 hrs” value ([1]; pH 7.4 to 8.0, 24 hrs) was 0.0% and the “% Emetine at pH 7.4 to 8.0 over 72 hrs” value ([1]; pH 7.4 to 8.0, 48 hrs) was 0.0%.
`CCC1CN2CCc3cc(OC)c(OC)cc3C2CC1CC1c2cc(OC)c(OC)cc2CCN1C(=S)SCCC(N)=O` (stereo not drawn) [Compound 4b] gave an IC50 (LNCaP cells) greater than 10 µM, an IC50 (PC3 cells; [9]) of 6.56 ± 1.11 µM and an IC50 (DU145 cells; [2]) greater than 10 µM.
